This is an account of results in patent publication US7795244B2, “Penem prodrugs” (priority 2006, dated 2010).

What is called half-life is the time in which the quantity being followed falls by half. For orientation: solubility means how much of the substance goes into solution per volume. A lower solubility goes with little dissolved substance. A word on the ED50: it is the dose at which the effect has come halfway, by size or by number of responders. Lower therefore signals greater potency. One may read the Km as the substrate concentration at which the rate is half of its maximum.

Data set [1] in a line: Liver S9 conversion efficiency. As to conditions: liver S9 experiments. It counts as in vitro ADME, human.
Data set [2] in a line: Stability in the presence of porcine pancrelipase (PPE). It is filed as in vitro ADME. Conditions: pig, porcine pancrelipase (ku-zyme HP) in phosphate buffer, 50 μM substrate, pH 7.4, 37° C.
Data set [3] has as its system porcine pancrelipase (PPE). The data set is described as above. It is filed as in vitro ADME.
The nature of another data set: Equilibrium solubility. It is filed as physicochemical. As to conditions: aqueous buffer, thermodynamic from solid, 25 mM phosphate buffer (pH 5), ambient temperature / 25° C. Here is the method: Vials containing excess prodrug in phosphate buffer were rotated for up to 48 hours. After the equilibrium period, samples were pulled, filtered through 0.45 μm Gelman Acrodisc Nylon syringe filter and analyzed for drug concentration using HPLC. The HPLC conditions were: Column. C18, SymmetryShield RP, Waters, 4.6×150 mm, 3.5 micron; Mobile phase A: Acetonitrile; Mobile phase B: 0.1% TFA in water; Flow rate, 1 mL/min; Run Time: 30 min Inj. vol. 20 μL; Detection: 210 nm; Dissolving solvent: Acetonitrile/water (50:50 v:v).

Another data set has as its system H. influenzae BLNAR. The data set is described as follows: Gerbil otitis media model. Conditions: Gerbil otitis media vs. H. influenzae BLNAR, oral TID for two days from 18 h post-infection, bacterial levels in middle ear fluid day four, repeat experiments.
Another data set has as its system K. pneumoniae 6485. The data set can be described thus: Murine acute systemic infection model. As to conditions: Murine acute systemic infection vs. K. pneumoniae 6485; oral BID; survival day four post-infection; repeat experiments.
In data set [4] the test system is S. pneumoniae 1095. The data set is described as follows: Murine acute systemic infection model. As to conditions: Murine acute systemic infection vs. S. pneumoniae 1095; oral BID; survival day four post-infection; repeat experiments.
Data set [5] has as its system S. pneumoniae 1095. The data set can be described thus: Murine respiratory tract infection model. As to conditions: Murine respiratory tract infection vs. S. pneumoniae 1095; oral BID for two days from 18 h post-infection; survival day ten; repeat experiments.
A short description of data set [6]: Stability in human intestinal juice (HIJ). Conditions: pooled human intestinal juice (4 subjects), buffered, pH 7.4.
For data set [7], the system named is Staphylococcus saprophyticus. The data set is described as follows: MIC90 in vitro activity of sulopenem. It is filed as cell-based.
Another data set relates to Alloiococcus otitidis. The data set can be described thus: MIC90 in vitro activity of sulopenem. It is filed as cell-based. Conditions: Alloiococcus otitis.
For data set [8], the system named is Streptococcus pyogenes (Group A). The data set is described as follows: MIC90 in vitro activity of sulopenem. It is filed as cell-based.
In data set [9] the test system is Streptococcus bovis (Group D). The data set can be described thus: MIC90 in vitro activity of sulopenem. It counts as cell-based. As to conditions: Streptococcus equinus.
The test system of data set [10] is Viridans Streptococcus group. The data set is described as follows: MIC90 in vitro activity of sulopenem. It counts as cell-based.
For data set [11], the system named is Streptococcus pneumoniae penicillin-susceptible. The data set is described as follows: MIC90 in vitro activity of sulopenem. It is filed as cell-based.
Data set [12] has as its system Streptococcus pneumoniae penicillin-intermediate. The data set is described as follows: MIC90 in vitro activity of sulopenem. It is filed as cell-based.
In data set [13] the test system is Streptococcus pneumoniae penicillin-resistant. The data set is described as follows: MIC90 in vitro activity of sulopenem. It is filed as cell-based.
The test system of data set [14] is Streptococcus pneumoniae levofloxacin-resistant. The data set is described as follows: MIC90 in vitro activity of sulopenem. It is filed as cell-based.
The subject of a further data set is Klebsiella oxytoca. The data set can be described thus: MIC90 in vitro activity of sulopenem. It counts as cell-based. Here is the method:
(§1) The in vitro activity of sulopenem (the parent acid (5R,6S)-6-[(1R)-1-hydroxyethyl]-7-oxo-3-[[(1R3S)-tetrahydro-1-oxido-3thienyl]thio]4-thia-1-azabicyclo[3.2.0]hept-2-ene-2-carboxylic acid) was evaluated against pathogens involved in community and hospital infections, as summarized in Table 1. .

The next data set relates to Klebsiella pneumoniae. The data set is described as follows: MIC90 in vitro activity of sulopenem. It counts as cell-based. Here is the method:
as §1

Another data set has as its system Listeria monocytogenes. The data set can be described thus: MIC90 in vitro activity of sulopenem. It counts as cell-based. Here is the method:
as §1

In a further data set the test system is Prevotella spp. The data set is described as follows: MIC90 in vitro activity of sulopenem. It is filed as cell-based. Here is the method: as §1
The subject of another data set is Salmonella/Shigella. The data set can be described thus: MIC90 in vitro activity of sulopenem. It is filed as cell-based. Here is the method:
as §1

For data set [15], the system named is Staphylococcus aureus oxacillin-S. The data set can be described thus: MIC90 in vitro activity of sulopenem. It counts as cell-based. Here is the method:
as §1

The subject of data set [16] is Streptococcus agalactiae (Group B). The data set is described as follows: MIC90 in vitro activity of sulopenem. It is filed as cell-based. Here is the method: as §1
Data set [17] concerns Corynebacterium spp (not C. jeikeium). The data set is described as follows: MIC90 in vitro activity of sulopenem. It counts as cell-based.
A further data set has as its system Citrobacter diversus. The data set can be described thus: MIC90 in vitro activity of sulopenem. As to conditions: Citrobacter koseri. It is filed as cell-based.
In the next data set the test system is Citrobacter freundii. The data set is described as follows: MIC90 in vitro activity of sulopenem. It is filed as cell-based.
Another data set has as its system Enterobacter aerogenes. The data set can be described thus: MIC90 in vitro activity of sulopenem. It counts as cell-based. As to conditions: Klebsiella aerogenes.
The test system of another data set is Enterobacter cloacae. The data set can be described thus: MIC90 in vitro activity of sulopenem. It counts as cell-based.
A further data set relates to Escherichia coli. The data set is described as follows: MIC90 in vitro activity of sulopenem. It counts as cell-based.
Data set [18] has as its system Klebsiella pneumoniae ESBL+. The data set is described as follows: MIC90 in vitro activity of sulopenem. It counts as cell-based.
The subject of another data set is Morganella morganii. The data set is described as follows: MIC90 in vitro activity of sulopenem. It is filed as cell-based.
The subject of another data set is Proteus mirabilis. The data set can be described thus: MIC90 in vitro activity of sulopenem. It is filed as cell-based.
Data set [19] deals with Haemophilus influenzae β-lactamase−. The data set can be described thus: MIC90 in vitro activity of sulopenem. It counts as cell-based.
In data set [20] the test system is Haemophilus influenzae β-lactamase+. The data set can be described thus: MIC90 in vitro activity of sulopenem. It counts as cell-based.
Data set [21] has as its system Moraxella catarrhalis β-lactamase−. The data set is described as follows: MIC90 in vitro activity of sulopenem. It counts as cell-based.
Data set [22] relates to Moraxella catarrhelis β-lactamase+. The data set can be described thus: MIC90 in vitro activity of sulopenem. It counts as cell-based.
The test system of a further data set is Legionella pneumophila. The data set is described as follows: microbe, parasite or virus in culture. It counts as cell-based.
Another data set concerns Neisseria meningitides. The data set is described as follows: MIC90 in vitro activity of sulopenem. It is filed as cell-based.
The next data set concerns Becteroides fragilis. The data set is described as follows: MIC90 in vitro activity of sulopenem. It is filed as cell-based.
Another data set has as its system Clostridium perfringens. The data set is described as follows: microbe, parasite or virus in culture. It is filed as cell-based.
For data set [23] the following is noted: in vivo, po; cited from earlier work.

In brackets after ≈: the same amount, converted by molar mass. Several values for one entry are separate records, joined by “and”; a condition that tells them apart may be missing. Equal values may be shown once.

Turning to `CCC(CC)C(=O)OCOC(=O)C1=C(S[C@H]2CC[S@@+]([O-])C2)S[C@@H]2[C@@H]([C@@H](C)O)C(=O)N12` [Compound 1, (2-Ethyl-1-oxobutoxy)methyl (5R,6S)-6-[(1R)-1-hydroxyethyl]-7-oxo-3-[[(1R,3S)-tetrahydro-1-oxido-3-thienyl]thio]-4-thia-1-azabicyclo[3.2.0]hept-2-ene-2-carboxylate], the “intrinsic clearance in human intestinal juice (in words)” value is given as “relatively low intrinsic clearance”. Further, the “conversion to sulopenem (in words)” value in data set [1] is “fully converted to sulopenem”. Also, the half-life at 50 µM in data set [2] (pH 7.4, ku-zyme Lot 1) was 11.7 ± 3.8 min. Also, the half-life at 50 µM in data set [2] (pH 7.4, ku-zyme lot 2) was 17.9 min. Further, the “PPE half-life (in words)” value in [3] is listed as “relatively long PPE half-life”. In “Equilibrium solubility”, this compound gave a solubility of 1210 µg/mL (≈ 2530 µM). Moreover, under “human, pH 7.4”, the “HIJ Clint (avg)” value worked out at 0.07 mL/min. The same compound showed an ED50 in the data set on H. influenzae BLNAR of 4.5 mg/kg. It took a dose of 8.7 mg/kg to reach the 50% effect level with H. influenzae BLNAR (Haemophilus influenzae, in Meriones unguiculatus, po) (ED50). The PD50 in the data set with K. pneumoniae 6485 was 88.6 mg/kg and 63.4 mg/kg. The PD50 in the data set with S. pneumoniae 1095 [4] is 12.5 mg/kg and 6.3 mg/kg. Also, the PD50 with S. pneumoniae 1095 [5] was 16.4 mg/kg and 12.5 mg/kg and 9.5 mg/kg. Also, the Km in [6] is 91 µM.

`C[C@@H](O)[C@H]1C(=O)N2C(C(=O)O)=C(S[C@H]3CC[S@@+]([O-])C3)S[C@H]12` [Sulopenem, (5R,6S)-6-[(1R)-1-hydroxyethyl]-7-oxo-3-[[(1R,3S)-tetrahydro-1-oxido-3-thienyl]thio]-4-thia-1-azabicyclo[3,2.0]hept-2-ene-2-carboxylic acid]: the MIC90 in data set [7] turned out to be 0.5 µg/mL (≈ 1.43 µM); in the data set with Alloiococcus otitidis it was 1 µg/mL (≈ 2.86 µM); in data set [8], 0.03 µg/mL (≈ 0.0858 µM); in data set [9], 0.06 µg/mL (≈ 0.172 µM); in data set [10], 0.25 µg/mL (≈ 0.715 µM); in [11], 0.03 µg/mL (≈ 0.0858 µM). Moreover, the MIC90 in [12] is 0.25 µg/mL (≈ 0.715 µM); in [13], 1 µg/mL (≈ 2.86 µM); in data set [14], 0.5 µg/mL (≈ 1.43 µM); in the data set with Klebsiella oxytoca, 0.125 µg/mL (≈ 0.358 µM); with Klebsiella pneumoniae, 0.125 µg/mL (≈ 0.358 µM); in the data set with Listeria monocytogenes it was 0.125 µg/mL (≈ 0.358 µM). In addition, the MIC90 in the data set with Prevotella spp was determined as 0.125 µg/mL (≈ 0.358 µM); in the data set with Salmonella/Shigella, 0.125 µg/mL (≈ 0.358 µM); in [15] it was 0.125 µg/mL (≈ 0.358 µM); in data set [16], 0.125 µg/mL (≈ 0.358 µM); in [17] it was 2 µg/mL (≈ 5.72 µM); with Citrobacter diversus it was 0.06 µg/mL (≈ 0.172 µM). Also, the MIC90 was found to be 0.25 µg/mL (≈ 0.715 µM) in the data set with Citrobacter freundii; 0.5 µg/mL (≈ 1.43 µM) against Enterobacter aerogenes; 1 µg/mL (≈ 2.86 µM) in the data set on Enterobacter cloacae; 0.06 µg/mL (≈ 0.172 µM) in the data set with Escherichia coli; 0.25 µg/mL (≈ 0.715 µM) in data set [18]; 2 µg/mL (≈ 5.72 µM) with Morganella morganii. For the same compound, the MIC90 in the data set on Proteus mirabilis stood at 0.5 µg/mL (≈ 1.43 µM); in data set [19], 0.25 µg/mL (≈ 0.715 µM); in [20] it was 0.5 µg/mL (≈ 1.43 µM); in data set [21] it was 0.03 µg/mL (≈ 0.0858 µM); in [22], 0.125 µg/mL (≈ 0.358 µM); with Legionella pneumophila, 0.06 µg/mL (≈ 0.172 µM). Further, the MIC90 in the data set on Neisseria meningitides amounted to 0.06 µg/mL (≈ 0.172 µM); against Becteroides fragilis it was 0.5 µg/mL (≈ 1.43 µM); in the data set on Clostridium perfringens it was 0.06 µg/mL (≈ 0.172 µM). In addition, in [23], the “oral bioavailability (in words)” value is listed as “not appreciably orally bioavailable”.
